Reference: PubChem BioAssay AID1963430 (Molecular Pharmacology Branch, DTP, NCI, 2024)

System: 521955-158-R2-J5-PDC complex spheroid growth, % test/control
Assay: Anticancer human tumor 521955-158-R2-J5-PDC patient-derived pancreatic carcinoma cell line growth inhibition [Asc]
Conditions: for IC50: curve of first compound; for viability, T/C: stronger effect = lower value
Summary of the method: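 Spheroid model: tumor line + HUVEC + hMSC. Single agents and combinations; top conc. at/near clinical Cmax (10 microM if undetermined), half-log dilutions. DMSO stocks at 800-fold test concentration.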
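Note: spheroids exposed to agents for 7 days before readout.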
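Throughout, for viability, T/C: 100% = DMSO vehicle control viability.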

Work on `Cc1nc(N2CCC3(CC2)COC(C)C3N)c(CO)nc1Sc1ccnc(N)c1Cl` (stereo not given) + Cc1c(S(C)(=O)=O)c(-c2cc(F)cc(N3CCN(c4ccc(NS(=O)(=O)c5ccc(NC(CCN6CCC(C(=O)OCCCP(=O)(O)O)CC6)CSc6ccccc6)c(S(=O)(=O)C(F)(F)F)c5)cc4)CC3)c2)c(-c2ccc(Cl)cc2)n1C(C)C yielded an IC50 (second compound 0.1 µM) of 60.8 nM, an IC50 (second compound 0.316 µM) of 57.7 nM and an IC50 (second compound 1 µM) of 142 nM. It also gave an IC50 (second compound 3.16 µM) of 392 nM, an IC50 (second compound 10 µM) greater than 3000 nM and a viability, T/C (second compound 0.1 µM, first compound 0.00949 µM) of 52.9%. For the same compound, the viability, T/C (second compound 0.1 µM, first compound 0.03 µM) was 55.8%, the viability, T/C (second compound 0.1 µM, first compound 0.0949 µM) was 45.8% and the viability, T/C (second compound 0.1 µM, first compound 0.3 µM) was 43.2%. The viability, T/C (second compound 0.1 µM, first compound 0.949 µM) was 34.9%, the viability, T/C (second compound 0.1 µM, first compound 3 µM) was 36.9% and the viability, T/C (second compound 0.316 µM, first compound 0.00949 µM) was 63.6%. The viability, T/C (second compound 0.316 µM, first compound 0.03 µM) was 65.8%, the viability, T/C (second compound 0.316 µM, first compound 0.0949 µM) was 38.9% and the viability, T/C (second compound 0.316 µM, first compound 0.3 µM) was 32.9%. The viability, T/C (second compound 0.316 µM, first compound 0.949 µM) was 30.4%, the viability, T/C (second compound 0.316 µM, first compound 3 µM) was 30.5% and the viability, T/C (second compound 1 µM, first compound 0.00949 µM) was 64.6%. It also gave a viability, T/C (second compound 1 µM, first compound 0.03 µM) of 69.4%, a viability, T/C (second compound 1 µM, first compound 0.0949 µM) of 48.2% and a viability, T/C (second compound 1 µM, first compound 0.3 µM) of 39.4%. For the same compound, the viability, T/C (second compound 1 µM, first compound 0.949 µM) was 44.4%, the viability, T/C (second compound 1 µM, first compound 3 µM) was 29.4% and the viability, T/C (second compound 3.16 µM, first compound 0.00949 µM) was 75.9%. The viability, T/C (second compound 3.16 µM, first compound 0.03 µM) was 64.7%, the viability, T/C (second compound 3.16 µM, first compound 0.0949 µM) was 61.2% and the viability, T/C (second compound 3.16 µM, first compound 0.3 µM) was 50.3%. The viability, T/C (second compound 3.16 µM, first compound 0.949 µM) was 43%, the viability, T/C (second compound 3.16 µM, first compound 3 µM) was 48.9% and the viability, T/C (second compound 10 µM, first compound 0.00949 µM) was 230%. The viability, T/C (second compound 10 µM, first compound 0.03 µM) was 221%, the viability, T/C (second compound 10 µM, first compound 0.0949 µM) was 179% and the viability, T/C (second compound 10 µM, first compound 0.3 µM) was 190%. The viability, T/C (second compound 10 µM, first compound 0.949 µM) was 179% and the viability, T/C (second compound 10 µM, first compound 3 µM) was 134%.
